# Assay results from publication doi:10.1101/2022.01.18.476765v1, “How a Formate Dehydrogenase Responds to Oxygen: Unexpected O2 Insensitivity of an Enzyme Harboring Tungstopterin, Selenocysteine, and [4Fe-4S] Clusters” (biorxiv, 2022).
# Key:
# DvH-FDH2 [1] = biological target: T1, DvH-FDH2 (Nitratidesulfovibrio vulgaris, UniProt Q728X0); test: PES/DCPIP reduction at […] nm, inhibition of formate oxidation; format: biochemical; conditions: formate with PES/DCPIP; 50 mM Tris pH 8.0; with and without O2
# T1 construct: gene fdnG-2; heterodimer, W-bis-pyranopterin, Sec, four [4Fe-4S]; Strep-tag II at C-terminus of large subunit, kept; periplasmic, Tat signal peptide on large subunit; homologous expression in DvH JW2127 (all fdh loci deleted), strain CSR21271; aerobic purification; with Formate dehydrogenase, beta (small) subunit, iron-sulfur
# T1 sequence (Q728X0 36-1003): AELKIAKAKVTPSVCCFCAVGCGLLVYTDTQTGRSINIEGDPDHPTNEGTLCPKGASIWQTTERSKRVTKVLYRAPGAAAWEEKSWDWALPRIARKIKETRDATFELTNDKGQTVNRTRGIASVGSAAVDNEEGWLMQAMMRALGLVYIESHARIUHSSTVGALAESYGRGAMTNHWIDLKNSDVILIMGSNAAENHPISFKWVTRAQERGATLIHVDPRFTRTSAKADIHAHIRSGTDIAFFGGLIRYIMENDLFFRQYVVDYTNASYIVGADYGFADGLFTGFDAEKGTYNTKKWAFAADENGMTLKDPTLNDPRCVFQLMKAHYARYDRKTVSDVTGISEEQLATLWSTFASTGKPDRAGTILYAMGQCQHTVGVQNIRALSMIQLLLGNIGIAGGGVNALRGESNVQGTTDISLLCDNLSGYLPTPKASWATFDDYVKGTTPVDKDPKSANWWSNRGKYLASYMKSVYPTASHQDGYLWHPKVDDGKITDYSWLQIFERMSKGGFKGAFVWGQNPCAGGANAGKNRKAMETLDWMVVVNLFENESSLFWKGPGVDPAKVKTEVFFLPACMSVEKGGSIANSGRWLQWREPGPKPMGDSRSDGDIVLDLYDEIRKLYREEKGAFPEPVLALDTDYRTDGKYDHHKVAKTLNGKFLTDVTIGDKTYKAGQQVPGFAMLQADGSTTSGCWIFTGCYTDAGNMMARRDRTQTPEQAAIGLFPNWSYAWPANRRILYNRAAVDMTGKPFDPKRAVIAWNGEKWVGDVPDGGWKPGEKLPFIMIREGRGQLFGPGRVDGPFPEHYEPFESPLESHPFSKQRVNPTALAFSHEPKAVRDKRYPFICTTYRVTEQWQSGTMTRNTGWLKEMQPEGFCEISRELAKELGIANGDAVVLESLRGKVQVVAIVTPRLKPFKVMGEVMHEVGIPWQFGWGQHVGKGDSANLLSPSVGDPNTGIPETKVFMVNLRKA
# T1 sequence (Q728X1 1-260 partner): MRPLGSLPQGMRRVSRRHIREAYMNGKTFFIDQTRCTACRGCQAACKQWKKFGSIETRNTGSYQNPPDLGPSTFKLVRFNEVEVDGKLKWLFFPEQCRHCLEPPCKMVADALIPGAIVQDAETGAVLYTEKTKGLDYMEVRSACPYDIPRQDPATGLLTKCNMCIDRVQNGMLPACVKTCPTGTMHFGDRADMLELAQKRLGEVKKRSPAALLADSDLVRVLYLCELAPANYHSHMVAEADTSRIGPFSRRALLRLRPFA
# DvH-FDH2 [2] = biological target: T1, DvH-FDH2; test: PES/DCPIP reduction at […] nm, global fit of full progress curves; format: biochemical; conditions: in air; 1 mM PES / 93 μM DCPIP; 50 mM Tris pH 8.0; Km calculated from kcat and kcat/Km
structure (smiles),measurement,setting,value
O=[N+]([O-])O [nitrate],inhibition profile,DvH-FDH2 [1],nitrate is far less effective
O=CO [formate],Km,DvH-FDH2 [2],4.5 ± 0.4 µM
